A word on the pIC50: it is the negative decadic logarithm of the IC50, by convention in mol/L.

pIC50: −log10 of the molar value.

For this assay, the target named is T1, Protein AF-9 (Homo sapiens, UniProt P42568).
T1 sequence (P42568 whole entry): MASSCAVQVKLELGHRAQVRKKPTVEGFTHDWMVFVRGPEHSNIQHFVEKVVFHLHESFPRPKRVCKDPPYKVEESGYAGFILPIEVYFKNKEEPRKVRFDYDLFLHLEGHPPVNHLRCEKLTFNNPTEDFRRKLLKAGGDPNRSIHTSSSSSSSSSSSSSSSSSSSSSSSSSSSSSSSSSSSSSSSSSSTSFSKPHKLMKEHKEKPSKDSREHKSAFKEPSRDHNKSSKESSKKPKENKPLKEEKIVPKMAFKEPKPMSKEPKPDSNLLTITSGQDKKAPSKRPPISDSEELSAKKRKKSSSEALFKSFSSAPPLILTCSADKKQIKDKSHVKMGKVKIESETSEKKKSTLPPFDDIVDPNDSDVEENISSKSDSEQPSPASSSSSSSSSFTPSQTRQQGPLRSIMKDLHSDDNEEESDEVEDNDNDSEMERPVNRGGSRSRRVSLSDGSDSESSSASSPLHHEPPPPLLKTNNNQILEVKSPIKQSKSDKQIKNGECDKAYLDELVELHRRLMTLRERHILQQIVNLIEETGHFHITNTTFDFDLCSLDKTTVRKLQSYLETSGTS
Kind of assay: Inhibition of human His-AF9 YEATS domain and biotinylated H3K9ac peptide interaction by AlphaScreen assay. In general terms: Alpha assays give light when donor and acceptor beads are brought close together.

The compound `CN(C)Cc1ccc(CNC(=O)c2ccc3nncn3c2)cc1` had a pIC50 of 5.31.

Values taken from ChEMBL document CHEMBL4808215, “Discovery of Selective Small-Molecule Inhibitors for the ENL YEATS Domain” (J Med Chem, 2021).
